From patent US8080665B2 (Chugai Seiyaku Kabushiki Kaisha, priority 2003, dated 2011)
pIC50, pKi: −log10 of the molar value.

biological target: T1, hMCD (Homo sapiens, UniProt O95822); assay: In vitro MCD inhibitory assay; assay type: biochemical; details: read-out: Ki, in vitro MCD inhibitory activities
T1 sequence (O95822 40-493): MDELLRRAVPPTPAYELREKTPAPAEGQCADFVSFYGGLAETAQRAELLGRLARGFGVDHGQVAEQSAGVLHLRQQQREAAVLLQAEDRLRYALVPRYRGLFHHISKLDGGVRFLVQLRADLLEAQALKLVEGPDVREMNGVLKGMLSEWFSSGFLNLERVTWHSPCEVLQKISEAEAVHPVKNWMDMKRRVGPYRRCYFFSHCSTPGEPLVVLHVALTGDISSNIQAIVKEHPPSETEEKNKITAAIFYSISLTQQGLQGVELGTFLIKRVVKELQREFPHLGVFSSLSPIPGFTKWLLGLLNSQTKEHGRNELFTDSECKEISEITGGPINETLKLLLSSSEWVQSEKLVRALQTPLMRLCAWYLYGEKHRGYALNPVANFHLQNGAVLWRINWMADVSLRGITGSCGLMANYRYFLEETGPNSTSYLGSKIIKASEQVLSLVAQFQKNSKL
Excerpt: In Vitro MCD Inhibitory Assay
As shown in eq. 1-3, the establishment of the kinetic equilibrium between malate/NAD and oxaloacetate/NADH was catalyzed by malic dehydrogenase (eq. 2). […] The accumulation of NADH can be continuously followed by monitoring the increase of fluorescence emission at 460 nm on a fluorescence plate reader. The fluorescence plate reader was calibrated using the authentic acetyl-CoA from Sigma. For a typical 96-well plate assay, the increase in the fluorescence emission (λex=360 nm, λem=460 nm, for NADH) in each well was used to calculate the initial velocity of hMCD. Each 50 μL assay contained 10 mM phosphate buffered saline (Sigma), pH 7.4, 0.05% Tween-20, 25 mM K2HPO4—KH2PO4 (Sigma), 2 mM Malate (Sigma), 2 mM NAD (Boehringer Mannheim), 0.786 units of MD (Roche Chemicals), 0.028 unit of CS (Roche Chemicals), 5-10 nM hMCD, and varying amounts of MCA substrate. Assays were initiated by the addition of MCA, and the rates were corrected for the background rate determined in the absence of hMCD.

pKi	SMILES
6.98	CC(C)N(C(=O)NC1CCN(S(=O)(=O)c2ccc(OC(F)(F)F)cc2)CC1)c1ccc2nc(S)sc2c1 [CBM-000302278]
7.65	CC(C)N(C(=O)NC1CCN(C(=O)CCC2CCCC2)CC1)c1ccc2nc(S)sc2c1 [CBM-000302275]
8.55	CC(C)N(C(=O)NC1CCN(S(=O)(=O)c2ccccc2)CC1)c1ccc2nc(S)sc2c1 [CBM-000302277]
8.42	CC(C)N(C(=O)NC1CCN(S(=O)(=O)c2cccc(C#N)c2)CC1)c1ccc2nc(S)sc2c1 [CBM-000302343]
7.69	CC(C)N(C(=O)NC1CCN(C(=O)CCc2ccccc2)CC1)c1ccc2nc(S)sc2c1 [CBM-000302220]
7.39	CC(C)N(C(=O)NC1CCN(C(=O)c2ccc(F)cc2)CC1)c1ccc2nc(S)sc2c1 [CBM-000302348]
7.96	CC(C)N(C(=O)NC1CCN(C(=O)OCc2ccccc2)CC1)c1ccc2nc(S)sc2c1 [CBM-000302130]
7.23	CCCC(=O)N1CCC(NC(=O)N(c2ccc3nc(S)sc3c2)C(C)C)CC1 [CBM-000302314]
7.39	CCCNC(=O)N1CCC(NC(=O)N(c2ccc3nc(S)sc3c2)C(C)C)CC1 [CBM-000302274]
7.07	CC(=O)c1ccc(S(=O)(=O)N2CCC(NC(=O)N(c3ccc4nc(S)sc4c3)C(C)C)CC2)cc1 [CBM-000302389]
8.85	CC(C)N(C(=O)NC1CCN(S(=O)(=O)c2ccc(F)cc2)CC1)c1ccc2nc(S)sc2c1 [CBM-000302425]
6.90	CC(C)c1ccc(S(=O)(=O)N2CCC(NC(=O)N(c3ccc4nc(S)sc4c3)C(C)C)CC2)cc1 [CBM-000302387]
8.85	CC(C)N(C(=O)NC1CCN(S(=O)(=O)c2ccc(F)c(Cl)c2)CC1)c1ccc2nc(S)sc2c1 [CBM-000302406]
6.20	CC(C)Oc1ccc(S(=O)(=O)N2CCC(NC(=O)N(c3ccc4nc(S)sc4c3)C(C)C)CC2)cc1 [CBM-000302368]
7.63	CC(C)CCC(=O)N1CCC(NC(=O)N(c2ccc3nc(S)sc3c2)C(C)C)CC1 [CBM-000302313, 1-isopropyl-1-(2-mercapto-benzothiazole-6-yl)-3-[1-(4-methyl-pentanolyl)-piperidin-4-yl]-urea]
7.21	CC(C)N(C(=O)NC1CCN(S(=O)(=O)c2ccc(C(F)(F)F)cc2)CC1)c1ccc2nc(S)sc2c1 [CBM-000302279]
8.14	COc1ccc(C(=O)N2CCC(NC(=O)N(c3ccc4nc(S)sc4c3)C(C)C)CC2)cc1 [CBM-000302359]
8.13	CC(C)N(C(=O)NC1CCN(C(=O)COc2ccccc2)CC1)c1ccc2nc(S)sc2c1 [CBM-000302218]
7.56	CCc1ccc(S(=O)(=O)N2CCC(NC(=O)N(c3ccc4nc(S)sc4c3)C(C)C)CC2)cc1 [CBM-000302404]

pKi	SMILES
7.10	CC(C)N(C(=O)NC1CCN(CCCC(F)(F)F)CC1)c1ccc2nc(S)sc2c1 [CBM-000302182]
7.71	CC(C)N(C(=O)NC1CCN(S(=O)(=O)c2cnc(Cl)c(Br)c2)CC1)c1ccc2nc(S)sc2c1 [CBM-000302426]
9.15	CC(C)N(C(=O)NC1CCN(S(=O)(=O)c2cccc(Cl)c2)CC1)c1ccc2nc(S)sc2c1 [CBM-000302342]
8.55	CC(C)N(C(=O)NC1CCN(S(=O)(=O)c2cccc(F)c2)CC1)c1ccc2nc(S)sc2c1 [CBM-000302369]
9.15	CCCCS(=O)(=O)N1CCC(NC(=O)N(c2ccc3nc(S)sc3c2)C(C)C)CC1 [CBM-000302276]
7.62	CC(C)N(C(=O)NC1CCN(C(=O)c2ccco2)CC1)c1ccc2nc(S)sc2c1 [CBM-000302360]
7.06	CCCCOc1ccc(C(=O)N2CCC(NC(=O)N(c3ccc4nc(S)sc4c3)C(C)C)CC2)cc1 [CBM-000302216]
7.72	CC(C)N(C(=O)NC1CCN(S(=O)(=O)C(C)C)CC1)c1ccc2nc(S)sc2c1 [CBM-000302215, 1-Isopropyl-1-(2-mercapto-benzothiazol-6-yl)-3-[1-(propane-2-sulfonyl)-piperidin-4-yl]-urea]
7.37	CC(C)N(C(=O)NC1CCN(C(=O)c2ccc(C(F)(F)F)cc2)CC1)c1ccc2nc(S)sc2c1 [CBM-000302217]
7.18	CCCc1ccc(S(=O)(=O)N2CCC(NC(=O)N(c3ccc4nc(S)sc4c3)C(C)C)CC2)cc1 [CBM-000302384]
7.76	COc1ccc(S(=O)(=O)N2CCC(NC(=O)N(c3ccc4nc(S)sc4c3)C(C)C)CC2)cc1 [CBM-000302407]
7.52	CC(C)N(C(=O)NC1CCN(C(=O)Nc2ccc(C(F)(F)F)cc2)CC1)c1ccc2nc(S)sc2c1 [CBM-000302219]
6.88	CC(C)N(C(=O)NC1CCN(S(=O)(=O)c2ccc(C(C)(C)C)cc2)CC1)c1ccc2nc(S)sc2c1 [CBM-000302344]
7.00	COC(=O)CCC(=O)N1CCC(NC(=O)N(c2ccc3nc(S)sc3c2)C(C)C)CC1 [CBM-000302316]
7.06	CC(C)N(C(=O)NC1CCN(c2ccc(OC(F)(F)F)cc2)CC1)c1ccc2nc(S)sc2c1 [CBM-000302361]
8.89	COc1cccc(S(=O)(=O)N2CCC(NC(=O)N(c3ccc4nc(S)sc4c3)C(C)C)CC2)c1 [CBM-000302386]
8.59	CC(C)N(C(=O)NC1CCN(S(=O)(=O)c2cccc(C(F)(F)F)c2)CC1)c1ccc2nc(S)sc2c1 [CBM-000302280]
6.91	CC(C)N(C(=O)NC1CCN(S(=O)(=O)c2ccc(C#N)cc2)CC1)c1ccc2nc(S)sc2c1 [CBM-000302424]
8.11	CC(C)N(C(=O)NC1CCN(S(=O)(=O)Cc2ccccc2)CC1)c1ccc2nc(S)sc2c1 [CBM-000302405]

test system: Isolated Working Rat Hearts; assay: Glucose oxidation in isolated working rat hearts; details: not given
Description: Isolated Working Rat Heart Assay Protocol
Isolated working hearts from male Sprague-Dawley rats (300-350 g) are subjected to a 60-minute aerobic perfusion period. The working hearts are perfused with 95% O2, 5% CO2 with a modified Krebs-Henseleit solution containing 5 mM glucose; 100 μU/mL insulin; 3% fatty acid-free BSA; 2.5 mM free Ca^2+, and 0.4 to 1.2 mmol/L palmitate (Kantor et al., Circulation Research 86:580-588 (2000)). The test compound is added 5 minutes before the perfusion period. DMSO (0.05%) is used as control.
Measurement of Glucose Oxidation Rates
Samples were taken at 10-minute intervals for measurements of experimental parameters. Glucose oxidation rates are determined by the quantitative collection of ^14CO2 produced by hearts perfused with buffer containing [U14]-Glucose (R. Barr and G. Lopaschuk, in “Measurement of cardiovascular function”, McNeill, J. H. ed., Chapter 2, CRC press, New York (1997)). After the perfusion, the ^14CO2 from the perfusae is subsequently released by injecting 1 mL of perfusate into sealed test tube containing 1 mL of 9NH2SO4. The tube was sealed with a rubber stopper attached to a scintillation vial containing a piece of filter papers saturated with 300 μl of hyamine hydroxide. The scintillation vials with filter papers were then removed and Ecolite Scintillation Fluid added. Samples were counted by standard procedures as described above. Average rates of glucose oxidation for each phase of perfusion are expressed as μmol/min/g dry wt as described above.
Active compounds are characterized by an increase in glucose oxidation and/or decrease in fatty acid oxidation as compared to the control experiments (DMSO). The compounds that caused statistically significant increases in glucose oxidation and/or decrease in fatty acid oxidation are considered to be active. Statistical significance was calculated using the Student's t test for paired or unpaired samples, as appropriate. The results with P<0.05 are considered to be statistically significant.

SMILES	GOX (%), glucose oxidation rate relative to DMSO (100%) [%]
CC(C)N(C(=O)NC1CCN(S(=O)(=O)c2cccc(C#N)c2)CC1)c1ccc2nc(S)sc2c1 [CBM-000302343]	177
CC(C)N(C(=O)NC1CCN(C(=O)COc2ccccc2)CC1)c1ccc2nc(S)sc2c1 [CBM-000302218]	236
CC(C)N(C(=O)NC1CCN(S(=O)(=O)c2cccc(Cl)c2)CC1)c1ccc2nc(S)sc2c1 [CBM-000302342]	285
CN(C(=O)NC1CCN(S(=O)(=O)c2ccccc2)CC1)c1ccc2nc(S)sc2c1 [CBM-000302281, 3-(1-Benzenesulfonyl-piperidin-4-yl)-1-(2-mercapto-benzothiazol-6-yl)-1-methyl-urea]	190
CCCCS(=O)(=O)N1CCC(NC(=O)N(c2ccc3nc(S)sc3c2)C(C)C)CC1 [CBM-000302276]	310
CC(C)N(C(=O)NC1CCN(S(=O)(=O)c2cccc(C(F)(F)F)c2)CC1)c1ccc2nc(S)sc2c1 [CBM-000302280]	683

test system: breast carcinoma cells; assay: not given; details: cited from earlier work

SMILES	malonyl-CoA level, % of the control [%]
CCCCCCCCCCCCCCOc1ccc(C(=O)O)o1 [TOFA, 5-(tetradecyloxy)-2-furoic acid]	60

test system: muscle (M) isoform of CPT-I; assay: not given; details: read-out: IC50 of malonyl-CoA inhibition of CPT-I; cited from earlier work

SMILES	pIC50
CC(C)(COP(=O)(O)OP(=O)(O)OC[C@H]1O[C@@H](n2cnc3c(N)ncnc32)[C@H](O)[C@@H]1OP(=O)(O)O)[C@@H](O)C(=O)NCCC(=O)NCCSC(=O)CC(=O)O [Malonyl-CoA]	7.52
